Earlier results as cited in patent US9861579B2, “Foamable formulation” (Nuvo Pharmaceuticals Inc., priority 2010, dated 2018).

CC(C)Cc1ccc(C(C)C(=O)O)cc1 (racemic) [Ibuprofen, 2-(4-isobutylphenyl) propanoic acid]
log P: 3.6 | solubility in water (practically insoluble in water): < 100 µg/mL
